One test concerns the target T1, Lp-PLA2 in human plasma (Homo sapiens, UniProt Q13093).
T1 construct: This assay may detect the activity of Lp-PLA2 in human plasma; from tissue; host or cells: pooled human plasma
T1 sequence (Q13093 22-441): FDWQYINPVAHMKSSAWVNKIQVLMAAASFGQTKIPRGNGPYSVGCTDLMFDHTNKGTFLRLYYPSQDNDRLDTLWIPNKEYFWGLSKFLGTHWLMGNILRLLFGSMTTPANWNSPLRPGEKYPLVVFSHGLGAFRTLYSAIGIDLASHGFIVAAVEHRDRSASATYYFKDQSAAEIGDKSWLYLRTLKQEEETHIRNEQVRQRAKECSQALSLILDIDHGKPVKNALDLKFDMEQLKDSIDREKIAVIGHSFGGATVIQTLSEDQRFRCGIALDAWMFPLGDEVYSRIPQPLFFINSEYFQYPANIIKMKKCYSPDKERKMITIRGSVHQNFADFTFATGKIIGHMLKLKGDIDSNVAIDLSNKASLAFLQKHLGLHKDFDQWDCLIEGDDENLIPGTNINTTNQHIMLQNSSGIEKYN
Put plainly: Lp-PLA2 human plasma assay (Thio-PAF assay). To be noted: pooled human plasma, 2-thio-PAF substrate; read-out: pIC50 in the thio-PAF assay (converted). In kind it is biochemical. An excerpt:
(3) Lipoprotein-Associated Phospholipase A2 (Lp-PLA2) Human Plasma Assay (Also Referred to as “Thio-PAF Assay”)
The human plasma assay utilizes a thioester analog of PAF (phosphatidylcholine), where hydrolysis yields to the formation of a phospholipid containing a free thiol group. The amount of thiol is quantitated continuously by reacting with CPM (7-diethylamino-3-(4′-maleimidylphenyl)-4-methylcoumarin), a maleimide which increases in fluoresence after Michael addition of thiols. This assay may detect the activity of Lp-PLA2 in human plasma, as determined by specific inhibition by Lp-PLA2 inhibitors.
The thio-PAF assay was run as a quenched 15 μL assay. Compounds source plate was prepared by making 1:3 (by volume) serial dilution of the compounds into pure DMSO on 384-well microplate. 0.01 μL of compounds on compound source plate were transferred to 384 well Greiner 784076 (black) low-volume plates by ECHO liquid dispenser. 8 μL pooled human plasma, which was previously aliquoted and frozen, was added. Plates were centrifuged for 10 sec at 500 rpm. After 30 minutes preincubation, 2 μL of substrate solution comprising 2.5 mM 2-thio-PAF [from ethanol stock], 32 μM CPM [from a DMSO stock] and 3.2 mM NEM (N-ethylmaleimide) [made fresh daily in DMSO] in assay buffer of 50 mM HEPES, pH 7.4, 150 mM NaCl, 1 mM CHAPS was added to 384 well Greiner 784076 (black) low-volume plates by BRAVO liquid handling station. After 2 mins, reaction was quenched with 5 μL of 5% aqueous trifluoroacetic acid (TFA). Plates were covered to protect from light and incubated for 40 min at room temperature. Plates were read at ex: 380/em: 485 using-Envision microplate reader. pIC50 data, curve and QC analysis was conducted by using XLFit module in Excel.

The target in test [1] is T2, recombinant human Lp-PLA2 (Homo sapiens, UniProt Q13093).
T2 sequence (Q13093 22-441): T1 sequence (Q13093 22-441)
Put plainly: Recombinant human Lp-PLA2 assay (rhLp-PLA2, PED6 assay). In kind it is biochemical. To be noted: recombinant human Lp-PLA2, PED6 substrate; upper limit for pIC50 in this assay is 9.3. The source says: (1) Recombinant Human Lp-PLA2 Assay (rhLp-PLA2) (Also Referred to as “PED6” Assay)
N-((6-(2,4-dinitrophenyl)amino)-hexanoyl)-2-(4,4-difluoro-5,7-dimethyl-4-bora-3a,4a-diaza-s-indacene-3-pentanoyl)-1-hexadecanoyl-sn-glycero-3-phosphoethanolamine, triethylammonium salt (PED6) is a commercially available fluorescently-labeled phospholipid, which is commercially available from Invitrogene and Molecular Probes. There is a quenching […] and a Bodipy fluorescein (FL) group in the sn2 position. Upon cleavage with Lp-PLA2, the Bodipy FL group is liberated and then may result in an increase in fluorescence. Inhibitors of Lp-PLA2 therefore prevent this cleavage and no fluorescent increase is observed.
The PED6 assay was run as an unquenched 10 μL assay. The source plate containing the compounds to be tested was prepared by making 1:3 (by volume) serial dilution of the compounds within DMSO on 384-well microplate. Then, 0.01 μL of the compounds on compound source plate were transferred into 384 well Greiner 784076 (black) plates using ECHO liquid dispenser. 5 µL of recombinant human Lp-PLA2 enzyme (4 nM (or 110 pM) rhLp-PLA2 in assay buffer of 50 mM HEPES, pH 7.4, 150 mM NaCl, 1 mM CHAPS) was added to each well of the plate. Plates were centrifuged for 10 sec at 500 rpm. After 30 minutes preincubation, 5 µL of substrate (4 μM (or 5 μM) PED6 [from 5 mM DMSO stock] in assay buffer of 50 mM HEPES, pH 7.4, 150 mM NaCl, 1 mM CHAPS) was added to 384 well Greiner 784076 (black) plates. Plates were centrifuged for 10 sec at 500 rpm. The plate was covered to protect it from light and incubated for 20 min at room temperature. The plates were read for fluorescence intensity at ex: 480/em: 540 using ViewLux microplate imager for Envision spectrofluroimeters pIC50 data, curve and QC analysis was conducted by using XL fit module in Excel.
The compounds described below were tested generally according to the PED6 assay described above.

Counter-ions that a name gives are not always drawn.

Regarding `CN1CCn2c1cc(OCc1cc(F)c(Oc3cccc(C#N)c3)c(F)c1)nc2=O` [Example 104, 3-(2,6-difluoro-4-(((1-methyl-5-oxo-1,2,3,5-tetrahydroimidazo[1,2-c]pyrimidin-7-yl)oxy)methyl)phenoxy)benzonitrile], the IC50 on Lp-PLA2 in human plasma was not above 1000 nM; in test [1], not above 10 nM.

Consider `CN1CCn2c1cc(OCc1ccc(Oc3ccc(F)c(C#N)c3)c(F)c1)nc2=O` [Example 139, 2-fluoro-5-(2-fluoro-4-(((1-methyl-5-oxo-1,2,3,5-tetrahydroimidazo[1,2-c]pyrimidin-7-yl)oxy)methyl)phenoxy)benzonitrile], for which the IC50 was not above 1000 nM on Lp-PLA2 in human plasma and not above 10 nM in test [1].

Take `N#Cc1cc(COc2cc3n(c(=O)n2)CCN3)ccc1Oc1ccnc(C(F)(F)F)c1` [Example 91, 5-(((5-oxo-1,2,3,5-tetrahydroimidazo[1,2-c]pyrimidin-7-yl)oxy)methyl)-2-((2-(trifluoromethyl)pyridin-4-yl)oxy)benzonitrile]: the IC50 is not above 100 nM at Lp-PLA2 in human plasma and not above 10 nM in test [1].

In the case of `N#Cc1cc(COc2cc3n(c(=O)n2)CCN3)ccc1Oc1ccc(C#N)c(C(F)(F)F)c1` [Example 88, 4-(2-cyano-4-(((5-oxo-1,2,3,5-tetrahydroimidazo[1,2-c]pyrimidin-7-yl)oxy)methyl)p-henolxy)-2-(trifluoromethyl)benzonitrile], the IC50 on Lp-PLA2 in human plasma is not above 100 nM; in test [1], 2 nM.

Turning to `CN1CCn2c1cc(OCc1ccc(Oc3ccc(F)c(Cl)c3)c(F)c1)nc2=O` [Example E15, 7-((4-(3-chloro-4-fluorophenoxy)-3-fluorobenzyl)oxy)-1-methyl-2,3-dihydroimida-zo[1,2-c]pyrimidin-5(1H)-one], the IC50 was not above 1000 nM at Lp-PLA2 in human plasma and not above 10 nM in test [1].

Regarding `CN1CCn2c1cc(OCc1ccc(Oc3ccc(Cl)nc3)c(C#N)c1)nc2=O` [Example 100, 2-((6-chloropyridin-3-yl)oxy)-5-(((1-methyl-5-oxo-1,2,3,5-tetrahydroimidazo[1,2-c]pyrimidin-7-yl)oxy)methyl)benzonitrile], the IC50 was not above 1000 nM at Lp-PLA2 in human plasma and not above 10 nM in test [1].

Regarding `CN1CCn2c1cc(OCc1ccc(Oc3cnc(F)c(F)c3)c(C#N)c1)nc2=O` [Example E73, 2-((5,6-difluoropyridin-3-yl)oxy)-5-(((1-methyl-5-oxo-1,2,3,5-tetrahydroimidazo[1,2-c]pyrimidin-7-yl)oxy)methyl)benzonitrile], the IC50 on Lp-PLA2 in human plasma was not above 1000 nM; in test [1], not above 10 nM.

With `CN1CCn2c1cc(OCc1ccc(Oc3ccc(C(F)(F)F)nc3)c(C#N)c1)nc2=O` [Example E49, 5-(((1-methyl-5-oxo-1,2,3,5-tetrahydroimidazo[1,2-c]pyrimidin-7-yl)oxy)methyl)-2-((6-(trifluoromethyl)pyridin-3-yl)oxy)benzonitrile], the IC50 on Lp-PLA2 in human plasma is not above 100 nM; in test [1], not above 10 nM.

`CN1CCn2c1cc(OCc1cc(F)c(Oc3cc(F)cc(F)c3)c(F)c1)nc2=O` [Example 99, 7-((4-(3,5-difluorophenoxy)-3,5-difluorobenzyl)oxy)-1-methyl-2,3-dihydroimida-zo[1,2-c]pyrimidin-5(1H)-one]: the IC50 at Lp-PLA2 in human plasma is not above 1000 nM; in test [1] it was not above 10 nM.

As for `O=c1nc(OCc2ccc(Oc3ccc(Cl)c(C(F)(F)F)c3)cc2)cc2n1CCN2` [Example 89, 7-((4-(4-chloro-3-(trifluoromethyl)phenoxy)benzyl)oxy)-2,3-dihydroimidazo[1,2-c]pyrimidin-5(1H)-one], the figures for the IC50 (at Lp-PLA2 in human plasma; in test [1]) were not above 1000 nM and not above 10 nM, respectively.

With `CN1CCn2c1cc(OCc1ccc(Oc3cncc(C(F)(F)F)c3)c(F)c1)nc2=O` [Example 126, 7-((3-fluoro-4-((5-(trifluoromethyl)pyridin-3-yl)oxy)benzyl)oxy)-1-methyl-2,3-dihydroimidazo[1,2-c]pyrimidin-5(1H)-one], the results for the IC50 (on Lp-PLA2 in human plasma; in test [1]) were not above 100 nM and not above 10 nM, respectively.

As to `CN1CCn2c1cc(OCc1ccc(Oc3ccc(C(F)(F)F)cc3)c(C#N)c1)nc2=O` [Example E24, 5-(((1-methyl-5-oxo-1,2,3,5-tetrahydroimidazo[1,2-c]pyrimidin-7-yl)oxy)methyl)-2-(4-(trifluoromethyl)phenoxy)benzonitrile, trifluoroacetic acid salt], the IC50 on Lp-PLA2 in human plasma is not above 1000 nM; in test [1], not above 10 nM.

Take `O=c1nc(OCc2ccc(Oc3cc(F)c(F)c(F)c3)c(F)c2)cc2n1CCN2` [Example E77, 7-((3-fluoro-4-(3,4,5-trifluorophenoxy)benzyl)oxy)-2,3-dihydroimidazo[1,2-c]pyrimidin-5(1H)-one, trifluoroacetic acid salt]: the IC50 was not above 1000 nM at Lp-PLA2 in human plasma and not above 1 nM in test [1].

As to `CN1CCn2c1cc(OCc1cc(F)c(Oc3ccc(C(F)(F)F)cc3)c(F)c1)nc2=O` [Example E84, 7-((3,5-difluoro-4-(4-(trifluoromethyl)phenoxy)benzyl)oxy)-1-methyl-2,3-dihydroimidazo[1,2-c]pyrimidin-5(1H)-one], the IC50 on Lp-PLA2 in human plasma was not above 1000 nM; in test [1], not above 10 nM.

As to `CN1CCn2c1cc(OCc1ccc(Oc3ccc(Cl)c(Cl)c3)c(F)c1)nc2=O` [Example E41, 7-((4-(3,4-dichlorophenoxy)-3-fluorobenzyl)oxy)-1-methyl-2,3-dihydroimidazo[1,2-c]pyrimidin-5(1H)-one], the values for the IC50 (on Lp-PLA2 in human plasma; in test [1]) were not above 1000 nM and not above 10 nM, respectively.

In the case of `CN1CCn2c1cc(OCc1ccc(Oc3ccc(F)c(C#N)c3)c(C#N)c1)nc2=O` [Example E52, 5-(2-cyano-4-(((1-methyl-5-oxo-1,2,3,5-tetrahydroimidazo[1,2-c]pyrimidin-7-yl)oxy)methyl)phenoxy)-2-fluorobenzonitrile], the IC50 at Lp-PLA2 in human plasma was not above 100 nM; in test [1] it was not above 10 nM.

`CN1CCn2c1cc(OCc1ccc(Oc3ccc(C#N)c(F)c3)c(F)c1)nc2=O` [Example 136, 2-fluoro-4-(2-fluoro-4-(((1-methyl-5-oxo-1,2,3,5-tetrahydroimidazo[1,2-c]pyrimidin-7-yl)oxy)methyl)phenoxy)benzonitrile]: the IC50 at Lp-PLA2 in human plasma is not above 1000 nM; in test [1], not above 10 nM.

On to `CC(C)N1CCn2c1cc(OCc1ccc(Oc3cccc(C(F)(F)F)c3)c(C#N)c1)nc2=O` [Example E51, 5-(((1-isopropyl-5-oxo-1,2,3,5-tetrahydroimidazo[1,2-c]pyrimidin-7-yl)oxy)methy)-2-(3-(trifluoromethyl)phenoxy)benzonitrile, trifluoroacetic acid salt], for which the IC50 was not above 100 nM at Lp-PLA2 in human plasma and not above 1 nM in test [1].

Values taken from patent US8975400B2, “2,3-dihydroimidazo[1, 2-c] pyrimidin-5(1 H)-one compounds use as LP-PLA2 inhibitors” (Glaxo Group Limited, priority 2011, dated 2015).
